Source: patent US5041542A, “Substituted pyrimido[5,4-d]pyrimidine nucleosides” (Nucleic Acid Research Institute, priority 1988, dated 1991)
pEC50, pIC50: −log10 of the molar value.

Experiments:
[1] = tested on: human immunodeficiency virus; assay: In vitro activity against HIV, viral cytopathic effect; type: cell-based
Experimental: (§1) Compound 8 was evaluated by the National Cancer Institute for in vitro activity against human immunodeficiency virus (HIV: cell line:CEM-V). In this test the compound was screened using human "host" cells with and without virus. The test is conducted for seven days (during which time infected, non-drug treated control cells are largely or totally destroyed by the virus), and then the number of remaining viable cells are determined. […] A therapeutic index (TI) can be calculated as the IC/EC ratio.

[2] = tested on: CEM-V cells; assay: Growth inhibition of normal, uninfected cells (HIV test); type: cell-based; conditions: Homo sapiens, 168 h
Experimental: as §1

[3] = Intracellular phosphorylation (SAX-HPLC); type: cell-based
[4] = tested on: DNA and RNA viruses; conditions: cited from earlier work
[5] = tested on: L1210 leukemia; conditions: mouse, in vivo; cited from earlier work
[6] = tested on: Herpes 2, parainfluenza 3 and Vaccinia; type: cell-based; conditions: tested in parallel with ARPP (8)
[7] = target: T1, WI-L2 adenosine kinase (Homo sapiens, UniProt P55263); assay: Adenosine kinase inhibition (filter binding assay); type: biochemical; conditions: decrease in rate of [14C]AMP formation from [14C]adenosine
T1 construct: added to the cell-free WI-L2 lysate to give 5 μM final assay concentration; endogenous in cells; host or cells: WI-L2 B lymphoblast cells (cell-free lysate)

[8] = Anomerization in aqueous solution (reverse-phase HPLC); type: physicochemical; conditions: buffered, 37° C., 9 h, no added protein
Experimental: This would be expected where the rate of anomerization is slow compared to the rate of deamination.
The compounds of the invention are capable of crossing the cell membrane, and activated to the 5'-phosphate, thus causing the inhibition of the de novo purine biosynthesis.
HPLC Analysis: Sample components were separated with an LKB model 2150 gradient HPLC system at ambient temperature on an Altex Ultrashere-ODS reverse phase column (Beckman) developed with a linear gradient of buffer A (10 mM KPO4 ', pH 3.83) to 20% component B (60% aqueous CH3 CN) at a combined flow rate of 1.0 mL/min over 15 min. Ultraviolet (UV) absorbance was monitored with an LKB model 2140 diode array detector. Inhibition of de novo purine biosynthesis: WI-L2 or adenosine kinase-deficient cells were preincubated at 37° C. with drug for various time periods prior to labeling with [^14 C]formate. Enzyme Assays: Adenosine kinase inhibition studies were accomplished by the filter binding assay method. Inhibition studies were done at 37° C. with an assay mixture containing 4 mM ATP, 1.5 mM MgCl2, 5 or 10 μM [8-^14 C] adenosine (50 mCi/mmol) and 100 mM Tris-maleate, pH 5.5. To prevent the enzymatic breakdown of adenosine, erythro-9-(2-hydroxy-3-nonyl)adenine (EHNA) was added to the cell-free WI-L2 lysate to give 5 μM final assay concentration. The assay was started by the addition of protein. The amount of enzyme, time of assay and sampling volume were adjusted to give acceptable conversion of [8-^14 C] adenosine to [8-^14 C]AMP. Each DE-81 filter was spotted with a constant sampling volume and immersed in H 2 O (4 L) to terminate the reaction. Filters were washed three times with H2 O (4 L) and once with EtOH (100 mL). Dry filters were placed in scintillation vials and radioactivity was counted with 10 mL toluene-based scintillation cocktail.

[9] = in vivo; conditions: mouse, ip

T1 sequence (P55263 whole entry): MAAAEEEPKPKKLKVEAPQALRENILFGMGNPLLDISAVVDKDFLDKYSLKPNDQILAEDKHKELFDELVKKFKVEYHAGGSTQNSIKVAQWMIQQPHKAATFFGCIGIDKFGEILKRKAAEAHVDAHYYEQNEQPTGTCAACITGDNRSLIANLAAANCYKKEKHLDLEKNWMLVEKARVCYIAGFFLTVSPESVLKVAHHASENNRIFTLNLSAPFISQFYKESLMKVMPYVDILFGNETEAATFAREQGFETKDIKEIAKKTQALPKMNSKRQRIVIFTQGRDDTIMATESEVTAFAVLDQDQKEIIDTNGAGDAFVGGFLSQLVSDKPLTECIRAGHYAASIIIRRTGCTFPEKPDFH

## Nc1ncnc2c(N[C@@H]3O[C@H](CO)[C@@H](O)[C@H]3O)ncnc12 [Compound 8, 4-Amino-8-(β-D-ribofuranosylamino)pyrimido[5,4-d]pyrimidine, reference compound]
[1]; Human immunodeficiency virus 1, 168 h, read-out: EC50 (50% reduction of viral cytopathic effect)
  pEC50: 7.02
[1]; Human immunodeficiency virus 1, 168 h, HIV, CEM-V cells, seven days, read-out: EC90 (90% reduction of viral cytopathic effect)
  EC90: 0.768 µM
[1]; IC50/EC50, HIV, CEM-V, 10080 min
  therapeutic index at 50% (IC/EC ratio): 2.05×10^1
[1]; IC90/EC90, HIV, CEM-V, 10080 min
  therapeutic index at 90% (IC/EC ratio): 8.60×10^0
[2]; read-out: IC50 (50% growth inhibition), seven days
  pIC50: 5.71
[2]; seven days
  IC90: 6.6 µM
[3]
  intracellular phosphate formation: formation of intracellular ARPP 5'-monophosphate but no higher phosphate analogues
[4]
  antiviral activity in cell culture (cited): antiviral activity for DNA and RNA viruses in cell culture by inhibiting viral protein synthesis
[5]
  growth of L1210 leukemia in mice (cited): inhibits the growth of L1210 leukemia in mice

## COc1ncnc2c(N[C@@H]3O[C@H](CO)[C@@H](O)[C@H]3O)ncnc12 [Compound 14, 4-Methoxy-8-(β-D-ribofuranosylamino)pyrimido[5,4-d]pyrimidine]
[6]
  Antiviral activity in cell culture: antiviral activity
[7]
  direct inhibition of adenosine kinase: Direct inhibition
[8]
  21 (anomeric mixture) formed from compound 14: 0.42%
  α-anomer 17 formed from compound 14: 1.35%
[9]
  MTD: 62 mg/kg
